# Test results as given in patent US6521211B1, “Methods of imaging and treatment with targeted compositions” (Bristol-Myers Squibb Medical Imaging, Inc., priority 1995, dated 2003).
# Tested on: β-galactosidase gene (pSV β-gal)
# Test: in vivo delivery of genetic material in rats, X-gal staining, with or without ultrasound
# Parameters: species or system Sprague Dawley rats
# Conditions: mixed with plasmid pSV β-gal, tail vein, 48 hours
# Procedure: Plasmid pSV β-gal (Promega, Madison, Wiss.), which contains the β-galactosidase gene, and the cationic lipid compound prepared in Example 3 were combined by mixing. The resulting mixture was injected into each of three Sprague Dawley rats (rats (A), (B) and (C)) via the tail vein. Rat (A) was not subjected to ultrasound. Ultrasonic energy was applied to the inside of the hind leg during injection for each of rats (B) and (C). After 48 hours, the rats were euthanized and the tissues were removed. The tissues were fixed for 72 hours in 2% formalin, sliced thin and placed in an X-gal solution. After 16 hours at 37° C., the tissues were inspected.
smiles,measurement,setting,value
"CCCCCCCCCCCCCCCCOC(=O)CN(CC[N+](C)(CC(=O)NCC[N+](C)(C)C)CC(=O)OCCCCCCCCCCCCCCCC)CC(=O)O (stereo not drawn) [Example 3, N,N′-bis (hexadecyloxycarbonylmethylene)-N-(β-N,N,N-trimethylammoniumethyl-aminocarbonylmethylene) -N-methyl-N′-(carboxymethylene)ethylenediamine diiodide]",X-gal staining of tissue (transfection),"rat (A), no ultrasound",blue color which is indicative of general transfection
same,X-gal staining of tissue (transfection),"rats (B) and (C), ultrasonic energy to inside of hind leg during injection",blue color only at the site where ultrasound energy was applied
